Results reported in ChEMBL document CHEMBL1159013, “Additional bioactive compounds and trilobacin, a novel highly cytotoxic acetogenin, from the bark of Asimina triloba” (J Nat Prod, 1992).
Values after ≈ are worked out from the molar mass of the structure shown.

How the values were obtained:
[1] = test system: HCC 2998; experiment: Growth inhibition of human HCC2998 cells after 3 days; assay type: functional; conditions: HCC 2998, 72 h
[2] = test system: LOX IMVI; experiment: Growth inhibition of human LOXIMVI cells after 3 days; assay type: functional; conditions: 72 h
[3] = test system: M14; experiment: Growth inhibition of human M14 cells after 3 days; assay type: functional; conditions: M14, 72 h
[4] = test system: CAKI-1; experiment: Growth inhibition of human Caki1 cells after 3 days; assay type: functional; conditions: CAKI-1, 72 h
[5] = test system: IGROV-1; experiment: Growth inhibition of human IGROV1 cells after 3 days; assay type: functional; conditions: IGROV-1, 72 h
[6] = test system: A549; experiment: Cytotoxicity against human A549 cells after 7 days; assay type: functional; conditions: for EC50: Homo sapiens, A549, 168 h, read-out: ED50 (the source's name)
[7] = test system: 786-0; experiment: Growth inhibition of human 786-0 cells after 3 days; assay type: functional; conditions: 786-0, 72 h
[8] = test system: OVCAR-8; experiment: Growth inhibition of human OVCAR8 cells after 3 days; assay type: functional; conditions: OVCAR-8, 72 h
[9] = test system: MCF7; experiment: Cytotoxicity against human MCF7 cells after 7 days; assay type: functional; conditions: MCF7, 168 h, read-out: ED50 (the source's name)
[10] = test system: TK-10; experiment: Growth inhibition of human TK10 cells after 3 days; assay type: functional; conditions: TK-10, 72 h
[11] = test system: OVCAR-5; experiment: Growth inhibition of human OVCAR5 cells after 3 days; assay type: functional; conditions: OVCAR-5, 72 h
[12] = test system: HT-29; experiment: Cytotoxicity against human HT-29 cells after 7 days; assay type: functional; conditions: for EC50: Homo sapiens, HT-29, 168 h, read-out: ED50 (the source's name)
[13] = test system: DLD-1; experiment: Growth inhibition of human DLD1 cells after 3 days; assay type: functional; conditions: DLD-1, 72 h
[14] = test system: A498; experiment: Growth inhibition of human A498 cells after 3 days; assay type: functional; conditions: A498, 72 h
[15] = test system: HT-29; experiment: Growth inhibition of human HT-29 cells after 3 days; assay type: functional; conditions: HT-29, 72 h
[16] = test system: NCI-H322M; experiment: Growth inhibition of human NCI-H322M cells after 3 days; assay type: functional; conditions: 72 h
[17] = test system: SF-539; experiment: Growth inhibition of human SF539 cells after 3 days; assay type: functional; conditions: SF-539, 72 h
[18] = Growth inhibition of human RXF631 cells after 3 days; assay type: functional; conditions: RXF 631, 72 h
[19] = test system: SF-268; experiment: Growth inhibition of human SF268 cells after 3 days; assay type: functional; conditions: SF-268, 72 h
[20] = test system: HOP-92; experiment: Growth inhibition of human HOP92 cells after 3 days; assay type: functional; conditions: HOP-92, 72 h
[21] = Growth inhibition of human LXFL529 cells after 3 days; assay type: functional; conditions: LXFL 529, 72 h
[22] = test system: SNB-75; experiment: Growth inhibition of human SNB75 cells after 3 days; assay type: functional; conditions: SNB-75, 72 h
[23] = test system: KM-20L2; experiment: Growth inhibition of human KM20L2 cells after 3 days; assay type: functional; conditions: KM-20L2, 72 h
[24] = Toxicity against brine shrimp larvae; assay type: organism-based; conditions: artemia, in vivo
[25] = test system: OVCAR-3; experiment: Growth inhibition of human OVCAR-3 cells after 3 days; assay type: functional; conditions: OVCAR-3, 72 h
[26] = test system: DMS-273; experiment: Growth inhibition of human DMS273 cells after 3 days; assay type: functional; conditions: DMS-273, 72 h
[27] = test system: NCI-H460; experiment: Growth inhibition of human NCI-H460 cells after 3 days; assay type: functional; conditions: NCI-H460, 72 h
[28] = test system: A549; experiment: Growth inhibition of human A549 cells after 3 days; assay type: functional; conditions: A549, 72 h
[29] = test system: COLO 205; experiment: Growth inhibition of human COLO205 cells after 3 days; assay type: functional; conditions: COLO 205, 72 h
[30] = test system: SK-OV-3; experiment: Growth inhibition of human SKOV3 cells after 3 days; assay type: functional; conditions: SK-OV-3, 72 h
[31] = test system: Malme-3M; experiment: Growth inhibition of human MALME-3M cells after 3 days; assay type: functional; conditions: 72 h
[32] = test system: SNB-78; experiment: Growth inhibition of human SNB78 cells after 3 days; assay type: functional; conditions: SNB-78, 72 h
[33] = test system: SW-620; experiment: Growth inhibition of human SW620 cells after 3 days; assay type: functional; conditions: SW-620, 72 h
[34] = test system: M19-MEL; experiment: Growth inhibition of human M19-MEL cells after 3 days; assay type: functional; conditions: 72 h
[35] = test system: HOP-62; experiment: Growth inhibition of human HOP62 cells after 3 days; assay type: functional; conditions: HOP-62, 72 h
[36] = test system: XF498; experiment: Growth inhibition of human XF498 cells after 3 days; assay type: functional; conditions: XF498, 72 h
[37] = test system: UACC-62; experiment: Growth inhibition of human UACC62 cells after 3 days; assay type: functional; conditions: UACC-62, 72 h
[38] = test system: SN12C; experiment: Growth inhibition of human SN12C cells after 3 days; assay type: functional; conditions: 72 h
[39] = test system: MOLT-4; experiment: Growth inhibition of human MOLT4 cells after 3 days; assay type: functional; conditions: MOLT-4, 72 h
[40] = test system: SK-MEL-2; experiment: Growth inhibition of human SK-MEL-2 cells after 3 days; assay type: functional; conditions: SK-MEL-2, 72 h
[41] = test system: U-251; experiment: Growth inhibition of human U251 cells after 3 days; assay type: functional; conditions: U-251, 72 h
[42] = test system: EKVX; experiment: Growth inhibition of human EKVX cells after 3 days; assay type: functional; conditions: 72 h
[43] = test system: SK-MEL-28; experiment: Growth inhibition of human SK-MEL-28 cells after 3 days; assay type: functional; conditions: SK-MEL-28, 72 h
[44] = test system: SR; experiment: Growth inhibition of human SR cells after 3 days; assay type: functional; conditions: 72 h
[45] = test system: CCRF-CEM; experiment: Growth inhibition of human CCRF-CEM cells after 3 days; assay type: functional; conditions: 72 h

Question: Which GI50 [1] does the source give for `CCCCCCCCCC[C@@H](O)[C@H]1CC[C@@H]([C@H]2CC[C@H]([C@H](O)CCCCCCCCCC[C@@H](O)CC3=C[C@H](C)OC3=O)O2)O1` [TRILOBACIN] here?
Answer: 0.00292 ng/mL (≈ 0.00469 nM)

Question: What about the GI50 [2] of the same compound?
Answer: 0.0012 ng/mL (≈ 0.00193 nM)

Question: And the GI50 [3]?
Answer: 0.0104 ng/mL (≈ 0.0167 nM)

Question: And the GI50 [4]?
Answer: 0.00883 ng/mL (≈ 0.0142 nM)

Question: What about the GI50 [5] of the same compound?
Answer: 0.00481 ng/mL (≈ 0.00772 nM)

Question: And the ED50 [6]?
Answer: 8.02 ×10⁻⁴ ug/ml

Question: And the GI50 [7]?
Answer: 0.0022 ng/mL (≈ 0.00353 nM)

Question: What about the GI50 [8] of the same compound?
Answer: 0.00293 ng/mL (≈ 0.0047 nM)

Question: And the EC50 [9]?
Answer: 329 ng/mL (≈ 528 nM)

Question: And the GI50 [10]?
Answer: 7000 nM

Question: And the GI50 [11]?
Answer: 4330 nM

Question: And the ED50 [12]?
Answer: <1 ×10⁻¹⁵ ug/ml

Question: What about the GI50 [13] of the same compound?
Answer: 0.0027 ng/mL (≈ 0.00433 nM)

Question: What about the GI50 [14] of the same compound?
Answer: 0.00686 ng/mL (≈ 0.011 nM)

Question: What about the GI50 [15] of the same compound?
Answer: 0.00216 ng/mL (≈ 0.00347 nM)

Question: And the GI50 [16]?
Answer: 4060 nM

Question: And the GI50 [17]?
Answer: 0.00138 ng/mL (≈ 0.00222 nM)

Question: And the GI50 [18]?
Answer: 1800 nM

Question: And the GI50 [19]?
Answer: 1700 nM

Question: What about the GI50 [20] of the same compound?
Answer: 0.00276 ng/mL (≈ 0.00443 nM)

Question: And the GI50 [21]?
Answer: 0.00217 ng/mL (≈ 0.00348 nM)

Question: And the GI50 [22]?
Answer: 0.00319 ng/mL (≈ 0.00512 nM)

Question: And the GI50 [23]?
Answer: 0.00375 ng/mL (≈ 0.00602 nM)

Question: What about the LC50 [24] of the same compound?
Answer: 8.7 ng/mL (≈ 14 nM)

Question: What about the GI50 [25] of the same compound?
Answer: 0.00109 ng/mL (≈ 0.00175 nM)

Question: What about the GI50 [26] of the same compound?
Answer: 0.00177 ng/mL (≈ 0.00284 nM)

Question: What about the GI50 [27] of the same compound?
Answer: 0.00293 ng/mL (≈ 0.0047 nM)

Question: And the GI50 [28]?
Answer: 0.00164 ng/mL (≈ 0.00263 nM)

Question: What about the GI50 [29] of the same compound?
Answer: 0.00349 ng/mL (≈ 0.0056 nM)

Question: What about the GI50 [30] of the same compound?
Answer: 8200 nM

Question: And the GI50 [31]?
Answer: 0.00144 ng/mL (≈ 0.00231 nM)

Question: And the GI50 [32]?
Answer: 2050 nM

Question: And the GI50 [33]?
Answer: 2640 nM

Question: And the GI50 [34]?
Answer: 0.00263 ng/mL (≈ 0.00422 nM)

Question: And the GI50 [35]?
Answer: 0.00234 ng/mL (≈ 0.00376 nM)

Question: And the GI50 [36]?
Answer: 0.00203 ng/mL (≈ 0.00326 nM)

Question: What about the GI50 [37] of the same compound?
Answer: 2670 nM

Question: And the GI50 [38]?
Answer: 1640 nM

Question: What about the GI50 [39] of the same compound?
Answer: 0.00116 ng/mL (≈ 0.00186 nM)

Question: And the GI50 [40]?
Answer: 0.00228 ng/mL (≈ 0.00366 nM)

Question: What about the GI50 [41] of the same compound?
Answer: 4330 nM

Question: And the GI50 [42]?
Answer: 0.002 ng/mL (≈ 0.00321 nM)

Question: And the GI50 [43]?
Answer: 0.00201 ng/mL (≈ 0.00323 nM)

Question: What about the GI50 [44] of the same compound?
Answer: 1090 nM

Question: And the GI50 [45]?
Answer: 0.0017 ng/mL (≈ 0.00273 nM)

Question: With `O=C(/C=C/c1ccc(O)cc1)NCCc1ccc(O)cc1` [N-P-COUMAROYL TYRAMINE] as the compound, how does the EC50 [6] read?
Answer: 3240 ng/mL (≈ 11400 nM)

Question: And the EC50 [9]?
Answer: 716 ng/mL (≈ 2530 nM)

Question: And the EC50 [12]?
Answer: 674 ng/mL (≈ 2380 nM)

Question: And the LC50 [24]?
Answer: 6700 ng/mL (≈ 23600 nM)

Question: What does the source list for `COc1cc(/C=C/C(=O)NCCc2ccc(O)cc2)ccc1O` [N-TRANS-FERULOYL TYRAMINE]?
Answer: EC50 [6]: 13400 ng/mL (≈ 42600 nM); EC50 [9]: 4760 ng/mL (≈ 15200 nM); EC50 [12]: 23600 ng/mL (≈ 75300 nM); LC50 [24]: 6700 ng/mL (≈ 21400 nM)

Question: Which EC50 [6] does the source give for `COc1cc([C@H]2OC[C@H]3[C@@H]2CO[C@@H]3c2cc(OC)c(O)c(OC)c2)cc(OC)c1O` [SYRINGARESINOL] here?
Answer: 14900 ng/mL (≈ 35600 nM)

Question: And the EC50 [9]?
Answer: 3690 ng/mL (≈ 8820 nM)

Question: And the EC50 [12]?
Answer: 15500 ng/mL (≈ 37000 nM)

Question: And the LC50 [24]?
Answer: 13600 ng/mL (≈ 32500 nM)
